# Results: patent US4192896A, “Method of using dialkylphenols in the treatment of mycoplasma diseases” (priority 1979, dated 1980)
# Legend:
# [1] = tested on: M. pneumoniae; assay: Growth of logarithmically growing cultures of M. pneumoniae in liquid culture with 2,4-DMP (CFU/ml); assay type: cell-based, Mycoplasma pneumoniae, strain PI 1428
# [2] = tested on: uninfected hamster tracheal explants; assay: Relative activity (explant viability: epithelial integrity x ciliary vigor) of uninfected hamster tracheal explants exposed to 2,4-DMP (toxicity); assay type: cell-based, golden hamster; details: for Relative activity following days of incubation with 2,4-DMP: uninfected explants, scale 0 to 300
# Experimental: Adult golden hamsters (approximately 140 g. male and female) were used as the tissue source. Animals appearing to be disease-free were selected. Tracheas were removed aseptically and sliced into rings. The rings were rinsed and then transfered into sterile Petri dishes containing a shallow layer of minimal essential medium (MEM, with glutamine, NaHCO3, 10% horse serum and 500 units of penicillin G/ml). These organ cultures were incubated for 24 hours at 36° C. in 5% carbon dioxide and then scored for "relative activity" (RA), a measure of explant viability. "Relative Activity" (0 to 300) is the product of the percentage of the epithelial layer which is intact (0 to 100) and the relative vigor of ciliary beating (0 to 3).
# Before undertaking further studies the determination of the toxicity of 2,4-DMP toward hamster tracheal explants and Mycoplasma pneumoniae is necessary.
compound,measurement,setting,value
"Cc1ccc(O)c(C)c1 [2,4-DMP, 2,4-dimethylphenol]",CFU/ml following days of culture,"[1]; 10^-3 moles/liter, day 0",2 × 10^4 CFU/ml
same,CFU/ml following days of culture,"[1]; 10^-3 moles/liter, day 1",5 × 10^4 CFU/ml
same,CFU/ml following days of culture,"[1]; 10^-3 moles/liter, day 2",6.3 × 10^4 CFU/ml
same,CFU/ml following days of culture,"[1]; 10^-3 moles/liter, day 3",6.5 × 10^4 CFU/ml
same,CFU/ml following days of culture,"[1]; 10^-3 moles/liter, day 4",6.7 × 10^4 CFU/ml
same,CFU/ml following days of culture,"[1]; 10^-3 moles/liter, day 5",4.1 × 10^4 CFU/ml
same,CFU/ml following days of culture,"[1]; 10^-3 moles/liter, day 6",3.3 × 10^4 CFU/ml
same,CFU/ml following days of culture,"[1]; 10^-3 moles/liter, day 7",1.5 × 10^4 CFU/ml
same,CFU/ml following days of culture,"[1]; 10^-5 moles/liter, day 0",2 × 10^4 CFU/ml
same,CFU/ml following days of culture,"[1]; 10^-5 moles/liter, day 1",1.2 × 10^5 CFU/ml
same,CFU/ml following days of culture,"[1]; 10^-5 moles/liter, day 2",7.5 × 10^6 CFU/ml
same,CFU/ml following days of culture,"[1]; 10^-5 moles/liter, day 3",2.5 × 10^7 CFU/ml
same,CFU/ml following days of culture,"[1]; 10^-5 moles/liter, day 4",6.0 × 10^7 CFU/ml
same,CFU/ml following days of culture,"[1]; 10^-5 moles/liter, day 6",1.5 × 10^7 CFU/ml
same,CFU/ml following days of culture,"[1]; 10^-5 moles/liter, day 7",4.3 × 10^6 CFU/ml
same,CFU/ml following days of culture,"[1]; 10^-8 moles/liter, day 0",2 × 10^4 CFU/ml
same,CFU/ml following days of culture,"[1]; 10^-8 moles/liter, day 1",1.5 × 10^5 CFU/ml
same,CFU/ml following days of culture,"[1]; 10^-8 moles/liter, day 2",7.2 × 10^6 CFU/ml
same,CFU/ml following days of culture,"[1]; 10^-8 moles/liter, day 3",2.4 × 10^7 CFU/ml
same,CFU/ml following days of culture,"[1]; 10^-8 moles/liter, day 4",6.3 × 10^7 CFU/ml
same,CFU/ml following days of culture,"[1]; 10^-8 moles/liter, day 5",5.2 × 10^7 CFU/ml
same,CFU/ml following days of culture,"[1]; 10^-8 moles/liter, day 6",1.1 × 10^7 CFU/ml
same,CFU/ml following days of culture,"[1]; 10^-8 moles/liter, day 7",4.2 × 10^6 CFU/ml
same,effect on mycoplasmal growth,[1]; higher concentrations (10^-3 M),inhibit mycoplasmal growth
same,effect on growth of the organism,[1]; lower amounts (10^-5 M),little or no effect on the growth of the organism
same,reductions in RAs of uninfected explants,[2]; 10^-3 and 10^-4 M,Significant reductions in RAs
same,overt cytotoxic effects in uninfected rings,[2]; 10^-5 M or less,no overt cytotoxic effects
same,"Relative activity following days of incubation with 2,4-DMP","[2]; 10^-3 moles/liter, day 1",210 ± 19
same,"Relative activity following days of incubation with 2,4-DMP","[2]; 10^-3 moles/liter, day 2",155 ± 12
same,"Relative activity following days of incubation with 2,4-DMP","[2]; 10^-3 moles/liter, day 3",105 ± 16
same,"Relative activity following days of incubation with 2,4-DMP","[2]; 10^-3 moles/liter, day 4",75 ± 16
same,"Relative activity following days of incubation with 2,4-DMP","[2]; 10^-3 moles/liter, day 5",55 ± 12
same,"Relative activity following days of incubation with 2,4-DMP","[2]; 10^-3 moles/liter, day 6",50 ± 16
same,"Relative activity following days of incubation with 2,4-DMP","[2]; 10^-3 moles/liter, day 7",50 ±16
same,"Relative activity following days of incubation with 2,4-DMP","[2]; 10^-4 moles/liter, day 1",255 ± 16
same,"Relative activity following days of incubation with 2,4-DMP","[2]; 10^-4 moles/liter, day 2",240 ± 33
same,"Relative activity following days of incubation with 2,4-DMP","[2]; 10^-4 moles/liter, day 3",200 ± 49
same,"Relative activity following days of incubation with 2,4-DMP","[2]; 10^-4 moles/liter, day 4",160 ± 45
same,"Relative activity following days of incubation with 2,4-DMP","[2]; 10^-4 moles/liter, day 5",150 ± 27
same,"Relative activity following days of incubation with 2,4-DMP","[2]; 10^-4 moles/liter, day 6",140 ± 24
same,"Relative activity following days of incubation with 2,4-DMP","[2]; 10^-4 moles/liter, day 7",135 ± 16
same,"Relative activity following days of incubation with 2,4-DMP","[2]; 10^-5 moles/liter, day 1",265 ± 12
same,"Relative activity following days of incubation with 2,4-DMP","[2]; 10^-5 moles/liter, day 2",270 ± 0
same,"Relative activity following days of incubation with 2,4-DMP","[2]; 10^-5 moles/liter, day 3",264 ± 13
same,"Relative activity following days of incubation with 2,4-DMP","[2]; 10^-5 moles/liter, day 4",270 ± 0
same,"Relative activity following days of incubation with 2,4-DMP","[2]; 10^-5 moles/liter, day 5",264 ± 13
same,"Relative activity following days of incubation with 2,4-DMP","[2]; 10^-5 moles/liter, day 6",258 ± 16
same,"Relative activity following days of incubation with 2,4-DMP","[2]; 10^-5 moles/liter, day 7",252 ± 16
